Results published in the supplement of paper PMC5908809.

What was measured:
NKL (IL-2 2.5 ng/mL) [1] = assay: relative IC50 (inflection point of fitted viability curve, relative to fitted max inhibition); higher = less sensitive; settings: 72 h
Experimental: (§1)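 Drug sensitivity and resistance testing: 5 concentrations over a 10,000-fold range, 72 h at 37 °C, viability by CellTiter-Glo normalised to DMSO and benzethonium chloride controls. IC50 is the inflection point of a logistic fit (min fixed at 0, max fitted), so it is relative to the fitted maximal inhibition. Kept only where fitted max inhibition is at least 50%.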

NK-92 (IL-2 2.5 ng/mL) [2] = assay: as above; settings: 72 h
Experimental: as §1

DERL-7 (IL-2 2.5 ng/mL) [3] = assay: as above; settings: 72 h
Experimental: as §1

[4] = test system: normal primary NK cells, pool 1 (3 donors) (IL-2 2.5 ng/mL); assay: drug sensitivity score (DSS) (DSS units); higher = more sensitive; extreme values may be limits of the assay; settings: 72 h
DERL-7 (IL-2 2.5 ng/mL) [5] = assay: as above; settings: 72 h
[6] = test system: normal primary NK cells, pool 1 (3 donors), resting (IL-2 0 ng/mL); assay: as above; settings: 72 h
SNK-6 (IL-2 2.5 ng/mL) [7] = assay: as above; settings: 72 h
YT (IL-2 2.5 ng/mL) [8] = assay: as above; settings: 72 h
IMC-1 (IL-2 20 ng/mL) [9] = assay: as above; settings: 72 h
[10] = test system: normal primary NK cells, pool 2 (3 donors) (IL-2 2.5 ng/mL); assay: as above; settings: 72 h
[11] = test system: normal primary NK cells, pool 3 (3 donors) (IL-2 2.5 ng/mL); assay: as above; settings: 72 h
NKL (IL-2 2.5 ng/mL) [12] = assay: as above; settings: 72 h
KHYG-1 (IL-2 2.5 ng/mL) [13] = assay: as above; settings: 72 h
NK-92 (IL-2 2.5 ng/mL) [14] = assay: as above; settings: 72 h
KAI3 (IL-2 2.5 ng/mL) [15] = assay: as above; settings: 72 h
NK-YS (IL-2 2.5 ng/mL) [16] = assay: as above; settings: 72 h
[17] = test system: normal primary NK cells, pool 1 (3 donors) (IL-2 2.5 ng/mL); assay: percent inhibition of viability; higher = more inhibition; settings: 72 h
DERL-7 (IL-2 2.5 ng/mL) [18] = assay: as above; settings: 72 h
[19] = test system: normal primary NK cells, pool 1 (3 donors), resting (IL-2 0 ng/mL); assay: as above; settings: 72 h
SNK-6 (IL-2 2.5 ng/mL) [20] = assay: as above; settings: 72 h
YT (IL-2 2.5 ng/mL) [21] = assay: as above; settings: 72 h
IMC-1 (IL-2 20 ng/mL) [22] = assay: as above; settings: 72 h
[23] = test system: normal primary NK cells, pool 2 (3 donors) (IL-2 2.5 ng/mL); assay: as above; settings: 72 h
[24] = test system: normal primary NK cells, pool 3 (3 donors) (IL-2 2.5 ng/mL); assay: as above; settings: 72 h
NKL (IL-2 2.5 ng/mL) [25] = assay: as above; settings: 72 h
KHYG-1 (IL-2 2.5 ng/mL) [26] = assay: as above; settings: 72 h
NK-92 (IL-2 2.5 ng/mL) [27] = assay: as above; settings: 72 h
KAI3 (IL-2 2.5 ng/mL) [28] = assay: as above; settings: 72 h
NK-YS (IL-2 2.5 ng/mL) [29] = assay: as above; settings: 72 h
[30] = test system: normal NK cells expanded with K562-aAPC; assay: as above; settings: 72 h, IL-2 2.5 ng/mL
Experimental: (§2)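 Drug sensitivity and resistance testing on K562-aAPC-expanded normal NK cells: 5 concentrations (10-fold steps over a 10,000-fold range), 72 h at 37 °C, viability by CellTiter-Glo normalised to DMSO and benzethonium chloride controls; DSS from the fitted curve.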

[31] = test system: normal NK cells expanded with K562-aAPC; assay: drug sensitivity score (DSS) (DSS units); higher = more sensitive; extreme values may be limits of the assay; settings: 72 h; IL-2 2.5 ng/mL
Experimental: as §2

Nc1nc(OCc2cc(Br)cs2)c2[nH]cnc2n1 [Lomeguatrib]
Settings	relative IC50 [nM]
NKL (IL-2 2.5 ng/mL) [1]	1900

O=c1sn(-c2cccc3ccccc23)c(=O)n1Cc1ccccc1 [Tideglusib]
Settings	relative IC50 [nM]
NK-92 (IL-2 2.5 ng/mL) [2]	> 3000

CC(C)NC[C@@H](C(=O)N1CCN(c2ncnc3c2[C@H](C)C[C@H]3O)CC1)c1ccc(Cl)cc1 [GDC-0068]
Settings	relative IC50 [nM]
DERL-7 (IL-2 2.5 ng/mL) [3]	1030

C=C(c1ccc(C(=O)O)cc1)c1cc2c(cc1C)C(C)(C)CCC2(C)C [Bexarotene]
Settings	relative IC50 [nM]
NKL (IL-2 2.5 ng/mL) [1]	208

COc1ccc(Cl)c(Nc2nc3ccccc3nc2NS(=O)(=O)c2cccc(NC(=O)C(C)(C)N)c2)c1 [Pilaralisib] (max concentration tested 2500 nM)
Settings	drug sensitivity score
DERL-7 (IL-2 2.5 ng/mL) [5]	2.77
IMC-1 (IL-2 20 ng/mL) [9]	0
KAI3 (IL-2 2.5 ng/mL) [15]	1.25
KHYG-1 (IL-2 2.5 ng/mL) [13]	1.04
NK-92 (IL-2 2.5 ng/mL) [14]	6.61
NK-YS (IL-2 2.5 ng/mL) [16]	0.68
NKL (IL-2 2.5 ng/mL) [12]	1.45
SNK-6 (IL-2 2.5 ng/mL) [7]	0.01
YT (IL-2 2.5 ng/mL) [8]	2.91
[4]	0.02
[6]	1.41
[10]	1.39
[11]	0.19
[31]	0.55

percent inhibition of viability [%]
Settings	0.25 nM	2.5 nM	25 nM	250 nM	2500 nM
DERL-7 (IL-2 2.5 ng/mL) [18]	4.27	-2.64	5.48	2.26	47.2
IMC-1 (IL-2 20 ng/mL) [22]	-10.7	-5.75	-6.19	-0.79	3.28
KAI3 (IL-2 2.5 ng/mL) [28]	-9.17	-2.97	-7.92	0.18	28.9
KHYG-1 (IL-2 2.5 ng/mL) [26]	-8.15	-0.08	-3.78	6.51	17.4
NK-92 (IL-2 2.5 ng/mL) [27]	1.29	7.6	3.1	33.3	47.3
NK-YS (IL-2 2.5 ng/mL) [29]	-9.63	-5.01	-7.74	-2.2	23.1
NKL (IL-2 2.5 ng/mL) [25]	-14.9	-17.9	-13.7	0.37	31.5
SNK-6 (IL-2 2.5 ng/mL) [20]	-25.1	-17.9	-11.5	-18.6	12.9
YT (IL-2 2.5 ng/mL) [21]	-4.96	-1.45	0.38	4.73	42
[17]	-2.73	-2.17	6.91	0.33	11.2
[19]	-1.59	14	8.93	7.44	20.9
[23]	-6.75	-2.47	3.08	7.62	22.6
[24]	-0.55	-0.41	8.73	-3.82	16
[30]	-5.86	-9.89	-4.45	9.09	13

C=C(c1ccc(C(=O)O)cc1)c1cc2c(cc1C)C(C)(C)CCC2(C)C [Bexarotene] (max concentration tested 10000 nM)
Settings	drug sensitivity score
DERL-7 (IL-2 2.5 ng/mL) [5]	0
IMC-1 (IL-2 20 ng/mL) [9]	0.08
KAI3 (IL-2 2.5 ng/mL) [15]	2.32
KHYG-1 (IL-2 2.5 ng/mL) [13]	11.4
NK-92 (IL-2 2.5 ng/mL) [14]	9.12
NK-YS (IL-2 2.5 ng/mL) [16]	6.37
NKL (IL-2 2.5 ng/mL) [12]	15.3
SNK-6 (IL-2 2.5 ng/mL) [7]	1.61
YT (IL-2 2.5 ng/mL) [8]	4.39
[4]	0
[6]	0.5
[10]	0
[11]	0
[31]	0

percent inhibition of viability [%]
Settings	1 nM	10 nM	100 nM	1000 nM	10000 nM
DERL-7 (IL-2 2.5 ng/mL) [18]	-1.72	-14.1	-7.53	1.51	6.9
IMC-1 (IL-2 20 ng/mL) [22]	-7.44	-4.67	-6.9	-7.39	14.5
KAI3 (IL-2 2.5 ng/mL) [28]	-2.82	4.02	5.5	12.6	29.6
KHYG-1 (IL-2 2.5 ng/mL) [26]	0.07	-1.61	31.4	35.3	42.5
NK-92 (IL-2 2.5 ng/mL) [27]	-0.26	-14.3	18	38.2	32.8
NK-YS (IL-2 2.5 ng/mL) [29]	-0.63	-6.05	10.2	30.5	40.5
NKL (IL-2 2.5 ng/mL) [25]	-2.63	-4.9	33.7	59.2	80.4
SNK-6 (IL-2 2.5 ng/mL) [20]	-4.84	-4.27	10	4.19	25.4
YT (IL-2 2.5 ng/mL) [21]	1.74	-2.56	5.09	22.2	38.4
[17]	2.65	3.77	5.07	-0.78	2.54
[19]	6.01	-4.44	-0.24	2.22	15.6
[23]	-3.26	-9.74	-11.1	-7.66	2.35
[24]	-2.37	-1.77	4	-8.07	-0.96
[30]	-0.13	-7.46	-13.6	-8.25	-6.11

CNC(=O)c1ccc2cc([C@@]3(O)CCn4cncc43)ccc2c1 [Orteronel] (max concentration tested 10000 nM)
Settings	drug sensitivity score
DERL-7 (IL-2 2.5 ng/mL) [5]	0
IMC-1 (IL-2 20 ng/mL) [9]	0
KAI3 (IL-2 2.5 ng/mL) [15]	0
KHYG-1 (IL-2 2.5 ng/mL) [13]	0
NK-92 (IL-2 2.5 ng/mL) [14]	0
NK-YS (IL-2 2.5 ng/mL) [16]	0
NKL (IL-2 2.5 ng/mL) [12]	0
SNK-6 (IL-2 2.5 ng/mL) [7]	0
YT (IL-2 2.5 ng/mL) [8]	0
[4]	0
[6]	2.88
[10]	0
[11]	0
[31]	0

percent inhibition of viability [%]
Settings	1 nM	10 nM	100 nM	1000 nM	10000 nM
DERL-7 (IL-2 2.5 ng/mL) [18]	-6.34	0.71	-1.69	-1	-1.19
IMC-1 (IL-2 20 ng/mL) [22]	-2.16	2.99	-1.56	2.85	-4.82
KAI3 (IL-2 2.5 ng/mL) [28]	-7.13	-0.59	-2.47	-4.32	-11.3
KHYG-1 (IL-2 2.5 ng/mL) [26]	-5.73	-2.14	-3.55	0.58	-8.03
NK-92 (IL-2 2.5 ng/mL) [27]	-11.2	0.34	-4.73	4.66	-21.7
NK-YS (IL-2 2.5 ng/mL) [29]	-3.4	-3.35	-1.88	-0.21	-5.45
NKL (IL-2 2.5 ng/mL) [25]	-5	-13	-12.1	0.4	-4.85
SNK-6 (IL-2 2.5 ng/mL) [20]	12.8	29.5	-7.71	18.8	-9.24
YT (IL-2 2.5 ng/mL) [21]	-1.09	-0.82	-3	6.56	-4.8
[17]	-3.93	-7.55	-2.24	5.97	4.41
[19]	-13	-1.84	15.9	8.47	14.4
[23]	-7.25	-8.3	-5.11	-0.18	-0.97
[24]	-9.86	-10.5	-4.17	-8.67	-0.69
[30]	-5.71	-7.96	-3.03	-3.58	-6.05

Nc1nc(OCc2cc(Br)cs2)c2[nH]cnc2n1 [Lomeguatrib] (max concentration tested 10000 nM)
Settings	drug sensitivity score
DERL-7 (IL-2 2.5 ng/mL) [5]	1.33
IMC-1 (IL-2 20 ng/mL) [9]	0
KAI3 (IL-2 2.5 ng/mL) [15]	0.96
KHYG-1 (IL-2 2.5 ng/mL) [13]	0
NK-92 (IL-2 2.5 ng/mL) [14]	0
NK-YS (IL-2 2.5 ng/mL) [16]	0.03
NKL (IL-2 2.5 ng/mL) [12]	4.14
SNK-6 (IL-2 2.5 ng/mL) [7]	0
YT (IL-2 2.5 ng/mL) [8]	0.19
[4]	2.96
[6]	0
[10]	0.34
[11]	0
[31]	0.49

percent inhibition of viability [%]
Settings	1 nM	10 nM	100 nM	1000 nM	10000 nM
DERL-7 (IL-2 2.5 ng/mL) [18]	4.42	1.17	2.11	0.21	29.9
IMC-1 (IL-2 20 ng/mL) [22]	-11.5	-6.71	-6.4	-6.2	8.26
KAI3 (IL-2 2.5 ng/mL) [28]	3.07	-2.1	-3	0.64	24.2
KHYG-1 (IL-2 2.5 ng/mL) [26]	1.34	-3.62	-7.2	-3.96	7.46
NK-92 (IL-2 2.5 ng/mL) [27]	-11.6	-17.5	-5.85	-7.63	3.77
NK-YS (IL-2 2.5 ng/mL) [29]	1.57	-2.53	-4.74	-3.26	12.7
NKL (IL-2 2.5 ng/mL) [25]	-4.89	-6.45	-9.35	8.52	51.3
SNK-6 (IL-2 2.5 ng/mL) [20]	-7.32	6.29	-7.89	4	9.3
YT (IL-2 2.5 ng/mL) [21]	-3.67	-6.22	-3.85	0.11	14.3
[17]	-4.41	4.97	9.83	16	26.1
[19]	12.8	8.93	18.4	19.5	20.8
[23]	-5.64	-7.78	3.47	3.5	14.1
[24]	0.89	-1.05	7.15	4.29	9.2
[30]	-6.1	-4.35	-4.12	-3.84	21
